This note sets out measurements from US20060039856A1, “Magnetic resonance with stimulation” (McLean Hospital Corporation, priority 2001, published 2006).

Each structure is given as a SMILES string.

The assay relates to right and left V1 (primary visual cortex) BOLD signal. Nature of the assay: BOLD fMRI of visual cortex during red and blue photic stimulation after oral drug or placebo. The note with it: for mean BOLD signal change, higher in drug than in placebo condition: all trials, 2.5 mg oral.

Turning to `C[C@H](N)Cc1ccccc1.C[C@H](N)Cc1ccccc1.O=S(=O)(O)O` [d-amphetamine, d-amphetamine sulfate], the “mean BOLD signal change, higher in drug than in placebo condition” value (blue light 0.12 lux, drug vs placebo (1.60%)) is 28% and the “mean BOLD signal change, higher in drug than in placebo condition” value (red light 0.12 lux, drug vs placebo (0.95%)) was 30%. Besides, the “effect of time following drug administration on BOLD signal response (linear regression)” value by setting is: (blue light, Z=-2.471, P=0.013, decreasing BOLD signal over time) “significant effect of time”; (red light, Z=-0.470, P=0.638) “no significant effect of drug over time”.
